Assay: gradient 5% acetonitrile 3 min, to 50% in 2 min, to 85% in 15 min, held 3 min, 100 µL/min
Conditions: column: Zorbax Extend-C18 2.1 x 50 mm; eluents: water / acetonitrile, 0.1% formic acid
In short: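 The mobile phases were water and acetonitrile, each with 0.1% formic acid, pumped at 100 μL/min through a Zorbax Extend-C18 column (2.1 × 50 mm, 1.8 μm). Pure standards were injected as mixtures of ~100 molecules and detected by a quadrupole time-of-flight mass spectrometer in positive and negative ionization mode. Retention time came from computationally picked adduct peaks, each inspected by hand.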

Compound	RP-LC retention time [s]
COC(=O)c1ccc(NC(=O)NCc2noc3ccccc23)cc1	824
O=S(=O)(Nc1nc2ccc(S(=O)(=O)N3CCCC3)cc2s1)c1ccc(F)cc1	773
COc1ccccc1N1CCN(C(=O)Cn2ccc3ccc(-c4nnc(C)o4)cc32)CC1	786
O=C(Cc1ccccc1)NCCc1nc2ccccc2[nH]1	545
O=C1COc2ccc(S(=O)(=O)N3CCC(C(=O)NCc4ccco4)CC3)cc2N1	697
Cc1nnc(-c2ccc(S(=O)(=O)N3CCOCC3)o2)o1	664
COc1ccc2cc(C(=O)N3CCC(CC(=O)NC4CC4)CC3)[nH]c2c1	690
CCn1c(=O)sc2cc(S(=O)(=O)N3CCC(C(=O)N4CCC5(CC4)OCCO5)CC3)ccc21	781
CC(C)COc1cc(=O)n2c(c1C(=O)NC1CCCCC1)CCCCC2	842
O=c1c2cc(-c3cccs3)nn2cnn1Cc1nc(-c2ccc(OC(F)(F)F)cc2)no1	1180
Brc1ccc(OCc2nn3c(C4COc5ccccc5O4)nnc3s2)cc1 (stereo not drawn)	1040
O=C(Nc1ccccc1Cl)N1CCN(CCn2c(-c3ccncc3)nc3cccnc32)CC1	588
O=C(Nc1ccc2c(c1)OCCO2)c1cc(-c2ccccn2)n[nH]1	648
O=C(c1ccc(N2CCCC2=O)cc1)N1CCCn2nc(-c3ccc(F)cc3)cc2C1	708
O=C(NCC#CCN1CCc2ccccc2C1)c1ccc2cc[nH]c2c1	579
O=S(=O)(c1ccc2c(c1)-c1oncc1CO2)N1CCN(Cc2ccc3c(c2)OCO3)CC1	666

Compound	RP-LC retention time [s]
CCCn1cc(C(=O)NC2CCN(Cc3ccccc3)CC2)c2cccnc21	624
CCCN(CCC)C(=O)C1CCCN(c2ccc(-c3ccc(C)cc3)nn2)C1 (stereo not drawn)	826
Cc1cc(N2CCCC2)n2nc(CN3CCN(c4ccccc4F)CC3)nc2n1	622
O=C(Cc1ccccc1)N1CCN(c2nc3cccnc3o2)CC1	686
CN1CCCCCCN(C(=O)C2(c3ccccc3)CC2)[C@H]2CCC[C@H]2C1=O	958
O=C(COc1ccc(Cl)cc1)Nc1ccccc1NC(=O)c1cccs1	887
O=C(NCC1CCCO1)c1ccc(-c2cnc(Oc3ccccc3)nc2)cc1 (stereo not drawn)	779
CC(=O)Nc1ccc(CC(=O)NC(C(=O)N2CCCc3ccccc32)c2ccccc2)cc1 (stereo not drawn)	803
O=C(c1ccsc1)N1CCC(c2nc(-c3ccc(F)cc3)n[nH]2)CC1	726
CCC(=O)Nc1ccc(C2(C(=O)N3CCOCC3)CCCCC2)cc1	721
CCC1Oc2ccc(S(=O)(=O)N3CCC(C(=O)Nc4ccc(F)cc4)CC3)cc2NC1=O (stereo not drawn)	866
CN(C)C(CNC(=O)c1cc(-c2cccs2)on1)c1ccccc1 (stereo not drawn)	664
O=C(Nc1cccc2ccccc12)c1ccccc1	923
Cn1cccc1-c1cc2n(n1)CCCN2C(=O)CCC(=O)NCc1ccc(F)cc1	717
O=C(NC1CCCCC1)N1CCC(OC2CCN(Cc3ccccc3)CC2)CC1	663

Further lines, results first:

RP-LC retention time [s]	Compound
690	COc1ccc(CCNC(=O)c2cc(C3CC3)[nH]n2)cc1OC
1180	CC1Oc2ccccc2N(Cc2nc(-c3ccc(Br)cc3)no2)C1=O (stereo not drawn)
712	COc1ccc(NC(=O)C2CCCN(c3cnc4nc(C)c(C)nc4c3)C2)c(C)c1 (stereo not drawn)
629	CCCCN(C)C(=O)Cn1c(CNC(=O)c2ccco2)nc2ccccc21
847	Cc1ccc(CCC(=O)Nc2cccc3ccccc23)o1
754	Cc1ccc(NC(=O)Cn2nc3nc(N4CCSCC4)ccn3c2=O)cc1C
901	CCOc1ccc(S(=O)(=O)Nc2ccc3c(c2)CCC(=O)N3CC(C)C)cc1
924	CCc1nc2c(NC(=O)c3ccc(F)c(Cl)c3)cccn2n1
577	Cc1ccc(NC(=O)Cn2c(N)nc(C)cc2=O)cc1
862	CC(C)NC(=O)N1CCCC(c2cccc(C(=O)NCc3ccc(F)cc3F)c2)C1 (stereo not drawn)
889	CCc1ccc(OCC(=O)Nc2cnn(C)c(=O)c2N2CCOCC2)cc1
700	COc1ccc(NC(=O)N(Cc2nnc3n2CCCCC3)c2cccc(OC)c2)cc1
811	Cc1ccc(N2CCC(NC(=O)Nc3ccccc3)C2=O)cc1 (stereo not drawn)
1050	CCCCn1cc(S(=O)(=O)NCc2cccc(C(F)(F)F)c2)c2cccnc21
1140	Cc1cc(Cl)ccc1S(=O)(=O)N1CC(c2nc(Cc3ccccc3)no2)C1
726	O=S(=O)(c1ccccc1Cl)N1CCN(c2ccc3nnc(-c4ccco4)n3n2)CC1
794	COc1ccc(NC(=O)N2CCc3cn(C)c4cccc(c34)C2)cc1OC
684	CNc1ncn(-c2c(C)cccc2C)c(=O)n1
850	CCN1C(=O)c2cccnc2Sc2cc(NC(=O)c3c(F)cccc3Cl)ccc21

RP-LC retention time [s]	Compound
1110	CCOc1ccc(-c2noc(CS(=O)(=O)c3cc(C)c(C)cc3C)n2)cc1
860	Cc1ccc(C)c(N2CCN(c3ccnc(SCC(=O)Nc4ccccc4)n3)CC2)c1
799	CCc1ccc(NC(=O)C2CCc3nc(N(CC)CC)ncc3C2)cc1 (stereo not drawn)
610	COc1cccc(NC(=O)CN2CCc3[nH]c4c(OC)ccc(Cl)c4c(=O)c3C2)c1
1020	COc1ccc(N2CC(c3nc(-c4oc5ccc(OC)cc5c4C)no3)CC2=O)cc1 (stereo not drawn)
645	COc1ccccc1N1CCN(c2ncnc3c2CCC3)CC1
1090	Cc1ccc(NC(=O)c2cn(-c3cc(-c4nc(C5CC5)no4)ccn3)cn2)c(C)c1
693	Cc1ccc(N(C)C(=O)Cn2ccc3c(=O)n(C)c(=O)n(C)c32)cc1C
934	COc1ccc(Nc2c(-c3ccc(SC)cc3)nc3cnc(Br)cn23)cc1OC
731	COCCNC(=O)C(C)Sc1ccc(=O)n(-c2ccc(C)c(Cl)c2)n1 (stereo not drawn)
691	COc1ccc(C(=O)Nc2cnc(N3CCCC3)nc2)cc1
666	Cc1cc(=O)n(CC(=O)Nc2ccc3c(c2)OCO3)c(N2CCCCC2)n1
599	Cn1cc(CCN2CCC(C(=O)NCc3cccc(F)c3)CC2)c2cccnc21
804	Cc1cc(C)c(C(=O)N2CCC(CC(=O)NCc3cccc(Cl)c3)CC2)[nH]1
1110	COCC(=O)Nc1ccc(-c2nc(-c3ccc(C)cc3C)co2)cc1
605	CCc1nc(-c2c(C)cc(C)nc2NC(=O)c2cc(C)cc(C)c2)no1
577	CNc1cccnc1OC1CCN(Cc2ccccn2)C1 (stereo not drawn)
771	Cc1cccc(NC(=O)c2nc3ccccc3[nH]c2=O)c1

Source: the METLIN SMRT retention time set (Domingo-Almenara et al. 2019)
